In patent publication US8871465B2 (priority 2009, dated 2014):

Experiments:
[1] = tested on: other Gram-positive bacteria; settings: pH 7.2
[2] = tested on: PaeniBacillus polymyxa ATCC 21551; settings: pH 7.2
[3] = tested on: Bacillus subtilis ATCC 6051; settings: 37° C., pH 7.2, 1 000 CFU, detection threshold 30 000 RFU
Procedure: (§1) Various pure strains of the Bacillus genus and also other Gram-positive bacteria were tested in a microplate in the presence of the medium below. A reading of the appearance of the fluorescence in each of the various wells of the microplate was then performed at different times over the course of 44 h of incubation at 37° C.
(§2) The medium having the following composition was used (composition in g/l), pH 7.2:
(§3) The wells of the microplate are inoculated with 10 colony-forming units (CFU) of bacteria of the Bacillus cereus group and 1 000 CFU for the other Bacillus that are non cereus and other Gram-positive bacteria. The microplate is then incubated for 44 h at 37° C. in a microplate reader in order to evaluate the PC-PLC activity of these various strains in the form of kinetics of hydrolysis of the substrate 4 MU-CP, i.e to detect and measure the appearance of fluorescence. The detection threshold of the measuring apparatus is fixed at 30 000 RFU (relative fluorescence unit).

L. ivanovii 0002147 = settings: 37° C., pH 7.2, 1 000 CFU, detection threshold 30 000 RFU
Procedure: as §1, §2, §3

L. ivanovii ATCC 49954 = settings: 37° C., pH 7.2, 1 000 CFU, detection threshold 30 000 RFU
Procedure: as §1, §2, §3

[4] = tested on: L. monocytogenes ATCC 19118; settings: 37° C., pH 7.2, 1 000 CFU, detection threshold 30 000 RFU
Procedure: as §1, §2, §3

S. aureus 25923 = settings: 37° C., pH 7.2, 1 000 CFU, detection threshold 30 000 RFU
Procedure: as §1, §2, §3

S. aureus 8407603 = settings: 37° C., pH 7.2, 1 000 CFU, detection threshold 30 000 RFU
Procedure: as §1, §2, §3

L. monocytogenes 0301902 = settings: 37° C., pH 7.2, 1 000 CFU, detection threshold 30 000 RFU
Procedure: as §1, §2, §3

[5] = tested on: ATCC 9139 (Bacillus cereus group); settings: pH 7.2
[6] = tested on: NCTC 11145 (Bacillus cereus group); settings: pH 7.2
[7] = tested on: Bacillus sphaericus 8710054; settings: pH 7.2
[8] = tested on: 0240015 (Bacillus cereus group); settings: pH 7.2
[9] = tested on: ATCC 6463 (Bacillus cereus group); settings: pH 7.2
[10] = tested on: Bacillus lentus ATCC 10840; settings: pH 7.2
[11] = tested on: Bacillus cereus ATCC 7064; settings: pH 7.2
[12] = tested on: ATCC 6464 (Bacillus cereus group); settings: pH 7.2
[13] = tested on: ATCC 33019 (Bacillus cereus group); settings: pH 7.2
[14] = tested on: Bacillus megaterium ATCC 14581; settings: pH 7.2
Bacillus cereus = settings: pH 7.2
[15] = tested on: Bacillus pumilus ATCC 7061; settings: pH 7.2
[16] = tested on: Bacillus circulans ATCC 4513; settings: pH 7.2
[17] = tested on: Bacillus cereus ATCC 7064
[18] = tested on: Bacillus licheniformis 93.08.043; settings: pH 7.2
[19] = tested on: ATCC 10876 (Bacillus cereus group); settings: pH 7.2
[20] = Stability of the substrate in aqueous medium; assay type: physicochemical; settings: medium at pH 7.2; a pH of 6.8 is required
[21] = as indicated in U.S. Pat. No. 6,558,917; cited from earlier work

**Q.** With `Cc1cc(=O)oc2cc(OP(=O)([O-])OCC[N+](C)(C)C)ccc12` [4 MU-PC, 4-methylumbelliferyl choline phosphate] as the compound, how does the “Incubation time to positive signal (PC-PLC activity)” value [1] read?
**A.** Its value is > 40 h.

**Q.** What about the “Levels of fluorescence in 24 h” value [2] of the same compound?
**A.** The value was 5000 RFU.

**Q.** What about the “Levels of fluorescence in 40 h” value [2] of the same compound?
**A.** Its value is 10000 RFU.

**Q.** And the “Levels of fluorescence in 24 h” value ([3]; 24 h)?
**A.** Its value is 10000 RFU.

**Q.** What about the “Levels of fluorescence in 40 h” value ([3]; 40 h) of the same compound?
**A.** Its value is 20000 RFU.

**Q.** What about the “Levels of fluorescence in 24 h” value (L. ivanovii 0002147; 24 h) of the same compound?
**A.** Its value is 2000 RFU.

**Q.** And the “Levels of fluorescence in 40 h” value (L. ivanovii 0002147; 40 h)?
**A.** The value was 10000 RFU.

**Q.** What about the “Levels of fluorescence in 24 h” value (L. ivanovii ATCC 49954; 24 h) of the same compound?
**A.** Its value is 2000 RFU.

**Q.** What about the “Levels of fluorescence in 40 h” value (L. ivanovii ATCC 49954; 40 h) of the same compound?
**A.** Its value is 10000 RFU.

**Q.** And the “Levels of fluorescence in 24 h” value ([4]; 24 h)?
**A.** Its value is 4000 RFU.

**Q.** What about the “Levels of fluorescence in 40 h” value ([4]; 40 h) of the same compound?
**A.** Its value is 15000 RFU.

**Q.** And the “Levels of fluorescence in 24 h” value (S. aureus 25923; 24 h)?
**A.** The value was 2000 RFU.

**Q.** And the “Levels of fluorescence in 40 h” value (S. aureus 25923; 40 h)?
**A.** The value was 2000 RFU.

**Q.** What about the “Levels of fluorescence in 24 h” value (S. aureus 8407603; 24 h) of the same compound?
**A.** Its value is 2000 RFU.

**Q.** And the “Levels of fluorescence in 40 h” value (S. aureus 8407603; 40 h)?
**A.** The value was 2000 RFU.

**Q.** And the “Levels of fluorescence in 24 h” value (L. monocytogenes 0301902; 24 h)?
**A.** The value was 5000 RFU.

**Q.** What about the “Levels of fluorescence in 40 h” value (L. monocytogenes 0301902; 40 h) of the same compound?
**A.** The value was 10000 RFU.

**Q.** And the “Levels of fluorescence in 24 h” value [5]?
**A.** Its value is >60000 RFU.

**Q.** And the “Levels of fluorescence in 40 h” value [5]?
**A.** The value was >60000 RFU.

**Q.** And the “Levels of fluorescence in 24 h” value [6]?
**A.** Its value is >60000 RFU.

**Q.** And the “Levels of fluorescence in 40 h” value [6]?
**A.** The value was >60000 RFU.

**Q.** And the “Levels of fluorescence in 24 h” value [7]?
**A.** The value was 20000 RFU.

**Q.** And the “Levels of fluorescence in 40 h” value [7]?
**A.** The value was >60000 RFU.

**Q.** And the “Levels of fluorescence in 24 h” value [8]?
**A.** The value was >60000 RFU.

**Q.** And the “Levels of fluorescence in 40 h” value [8]?
**A.** The value was >60000 RFU.

**Q.** And the “Levels of fluorescence in 24 h” value [9]?
**A.** The value was >60000 RFU.

**Q.** What about the “Levels of fluorescence in 40 h” value [9] of the same compound?
**A.** Its value is >60000 RFU.

**Q.** And the “Levels of fluorescence in 24 h” value [10]?
**A.** Its value is 5000 RFU.

**Q.** And the “Levels of fluorescence in 40 h” value [10]?
**A.** The value was 10000 RFU.

**Q.** And the “Levels of fluorescence in 24 h” value [11]?
**A.** The value was >60000 RFU.

**Q.** What about the “Levels of fluorescence in 40 h” value [11] of the same compound?
**A.** The value was >60000 RFU.

**Q.** And the “Levels of fluorescence in 24 h” value [12]?
**A.** The value was >60000 RFU.

**Q.** What about the “Levels of fluorescence in 40 h” value [12] of the same compound?
**A.** Its value is >60000 RFU.

**Q.** What about the “Levels of fluorescence in 24 h” value [13] of the same compound?
**A.** The value was >60000 RFU.

**Q.** And the “Levels of fluorescence in 40 h” value [13]?
**A.** Its value is >60000 RFU.

**Q.** What about the “Levels of fluorescence in 24 h” value [14] of the same compound?
**A.** Its value is 5000 RFU.

**Q.** And the “Levels of fluorescence in 40 h” value [14]?
**A.** Its value is 5000 RFU.

**Q.** What about the “Incubation time to positive signal (PC-PLC activity)” value (Bacillus cereus) of the same compound?
**A.** Its value is ≥ 15 h.

**Q.** And the “Levels of fluorescence in 24 h” value [15]?
**A.** Its value is 5000 RFU.

**Q.** And the “Levels of fluorescence in 40 h” value [15]?
**A.** Its value is 10000 RFU.

**Q.** And the “Levels of fluorescence in 24 h” value [16]?
**A.** Its value is 10000 RFU.

**Q.** And the “Levels of fluorescence in 40 h” value [16]?
**A.** The value was 20000 RFU.

**Q.** What about the “Reduction of the detection time at pH 7.2 compared with pH 6.8” value [17] of the same compound?
**A.** The value was 10 h.

**Q.** And the “Levels of fluorescence in 24 h” value [18]?
**A.** The value was 2000 RFU.

**Q.** And the “Levels of fluorescence in 40 h” value [18]?
**A.** Its value is 2000 RFU.

**Q.** What about the “Levels of fluorescence in 24 h” value [19] of the same compound?
**A.** Its value is >60000 RFU.

**Q.** And the “Levels of fluorescence in 40 h” value [19]?
**A.** Its value is >60000 RFU.

**Q.** For `Cc1cc(=O)oc2cc(OP(=O)(O)OC3C(O)C(O)C(O)C(O)C3O)ccc12` (stereo not shown) [4 MU-MIP, 4-methylumbelliferyl myoinositol-1-phosphate], which “Stability of the substrate at pH 7.2” value [20] is on record?
**A.** The value was “instability of the substrate being too great”.

**Q.** And the “Stability in an aqueous medium” value [21]?
**A.** Its value is “reduced stability”.
